The numbers were not newly measured in patent US5922313A, “Antibacterial composition” (Bio-Safe Enterprises, Inc., priority 1998, dated 1999), which cites them from elsewhere.

nonylphenol thoxylate: the virus killing result is “effective in killing hepatitis B and HIV viruses” in the data set on hepatitis B; “effective in killing hepatitis B and HIV viruses” with HIV.
